On the set-up of data set [1]: method as in PMID 29925826. Conditions: NH-acid; cited from earlier work.
In another data set the test system is AGS. In words: MTT assay, cytotoxic activity. Type of data set: cell-based, human. The note with it: Homo sapiens, 24 h, n = 12. Here is the method:
(§1) The human ovarian SKOV-3, gastric adenocarcinoma AGS, cervical HeLa cell lines and non-cancerous keratinocytes HaCaT were obtained from the American Type Culture Collection (ATCC, Manassas, VA, USA). The cell lines were cultured in McCoy’s Medium, Dulbecco’s Modified Eagle’s Medium/F12, and DMEM, respectively (Merck Millipore, Burlington, MA, USA). Penicillin (100 units/mL), streptomycin ([…]), and 10% (v/v) fetal bovine serum (FBS) were added to all the media. The cells were incubated at 37 °C and 5% CO2.
(§2) To estimate the cytotoxic activity of the obtained compounds 2a-i, MTT assay was used. The cells (5 × 10^3 cells/well) were treated with the compounds in a range of concentrations 1–150 µg/mL. […] After 24 h, MTT solution (0.5 mg/mL) was added to the cells. Formazan crystals were dissolved in DMSO and the absorbance was measured with a microtiter plate reader (Epoch, BioTek Instruments, Winooski, VT, USA).
Background: Formazan colour is commonly taken as a measure of viable cells.

The test system of another data set is HeLa. In words: MTT assay, cytotoxic activity. Type of data set: cell-based, human. Conditions: Homo sapiens, 24 h, n = 12. Here is the method:
as §1, §2

In a further data set the test system is SKOV-3. The data set is described as follows: MTT assay, cytotoxic activity. Type of data set: cell-based, human. Conditions: Homo sapiens, SK-OV-3; SKOV-3, MTT, 24 h, n = 12. The procedure:
as §1, §2

A further data set has as its system HaCaT. The data set is described as follows: MTT assay, cytotoxic activity on non-cancerous keratinocytes. Format: cell-based. The note with it: Homo sapiens, 24 h, n = 12. Here is the method:
as §1, §2

The next data set has as its system S. aureus ATCC 6535. The data set is described as follows: Microbroth dilution assay. Format: cell-based. The note with it: Staphylococcus aureus, ATCC6535. In general terms: Broth dilution looks for growth in wells or tubes with falling amounts of substance.
For the next data set, the system named is S. aureus MRSA 12673. In words: Microbroth dilution assay. Format: cell-based. The note with it: Staphylococcus aureus, S. aureus MRSA 12673; for MIC: read-out: MIC.
Another data set relates to E. coli ATCC 8739. The data set is described as follows: Microbroth dilution assay. Type of data set: cell-based. Conditions: Escherichia coli, ATCC8739, E. coli ATCC 8739; for MIC: read-out: MIC. Here is the method:
(§3) The minimum inhibitory concentration (MIC) and minimum bactericidal/fungicidal concentration (MBC/MFC) of the tested compounds were determined by the microbroth dilution technique using 96-well plates based on the methodology described in the EUCAST (European Committee on Antimicrobial Susceptibility Testing) standards. Reference and clinical strains of Gram-positive (Staphylococcus aureus ATCC 6538, Staphylococuccus aureus MRSA 6347) and Gram-negative (Escherichia coli ATCC 8739) bacteria, and yeast (Candida albicans ATCC 10231, Candida glabrata ATCC 2001) were used for the assay. The studies were carried out in the Mueller–Hinton (MH) broth for bacteria and RPMI 1640 broth + MOPS (Sigma-Aldrich, Poland) buffer in the case of yeast. The dry test samples were dissolved in DMSO (dimethyl sulfoxide), resulting in a final concentration of 15 mg/mL, and then diluted in a geometric progression. Ampicillin (Sigma-Aldrich, Poland) acted as a control sample (512 to 4 µg/mL) for bacteria and ketoconazole (128 to 1 µg/mL) (Sigma-Aldrich, Poland) acted as a control sample for yeast. The cultures of microorganisms were prepared by transferring cells from the stock cultures to tubes with the appropriate broth and incubated with agitation in an aerobic atmosphere for 18 ± 2 h at 35 ± 1 °C; next, they were diluted to achieve an optical density corresponding to 5 × 105 (bacteria) or 2 × 105 (yeast) colony-forming units per mL (cfu/mL). An appropriate media (96 µL), along with the tested compounds with a final concentration range of 300–3.1 µg/mL (4 µL) and next microbial suspension (100 µL) were added to each well. Plates with samples were incubated in adequate conditions described above and microbial growth was assessed. […] (>90%; ketoconazole) but 50% (for other compounds) inhibits visible growth of yeasts. Next, as a control of microbial viability, 100 µL of the samples from each well without growth was inoculated on the MH or RPMI agar plates and incubated for 18 ± 2 h at 35 ± 1 °C and finally, the CFU was counted. The MBC/MFC was determined as the minimum concentration of compounds required to kill 99.9% the organisms.

The subject of a further data set is C. albicans ATCC 10231. In words: Microbroth dilution assay. Type of data set: cell-based, Candida albicans. Conditions: Candida albicans, ATCC10231, C. albicans ATCC 10231; for MFC: read-out: MFC; for MIC: read-out: MIC. Here is the method:
as §3

Another data set deals with C. glabrata ATCC 2001. In words: Microbroth dilution assay. Type of data set: cell-based, Candida glabrata. The note with it: Nakaseomyces glabratus, ATCC2001. The procedure: as §3
In data set [2] the target is T1, AGE2-BSA/sRAGE interaction (Homo sapiens, UniProt Q15109).
T1 construct: purchased Creative BioMart
In words: ELISA AGE2-BSA/sRAGE inhibitory screening. Format: binding. Here is the method:
The in vitro inhibitor screening of AGE2 (glyceraldehyde-modified AGE)-sRAGE interaction (soluble RAGE) was performed using a 96-well AGE-BSA-coated plate (Creative BioMart® ELISA kit, Shirley, NY, USA), according to the manufacturer’s instructions. 100 UA/mL soluble RAGE (sRAGE) was incubated with 100 μM of the tested compounds or 0.05% DMSO as a negative control on an AGE2-BSA-coated plate at room temperature for 60 min, shaking at 300 rpm on an orbital microplate shaker. After incubation, the wells were washed 4 times with wash buffer and horseradish peroxidase (HRP)-labeled anti-RAGE antibody was added and the plate was further incubated at room temperature for 60 min, shaking at 300 rpm on an orbital microplate shaker. After incubation, the wells were washed 4 times with wash buffer and the Substrate Reagent was added to each well. After an incubation at room temperature for 5 min, the HRP-labeled antibody sRAGE-AGE complex was then detected by measuring the absorbance at 450 nm using the microplate reader Varioskan (Thermo Fischer Scientific). These experiments were repeated two times.
Background: ELISA stands for enzyme-linked immunosorbent assay.

For data set [3], the system named is HeLa, SKOV-3, AGS (and HaCaT) cell lines. The data set is described as follows: MTT assay, ranges stated over several cell lines. Type of data set: cell-based, human. Conditions: Homo sapiens. The procedure: as §1, §2
Data set [4] relates to S. aureus ATCC 6535, S. aureus MRSA 12673 and other tested bacterial and yeast strains. The data set is described as follows: Microbroth dilution assay, ranges stated over several strains. Type of data set: cell-based. The note with it: all tested microorganisms.
Setting [5] is: range over the cancer cell lines HeLa, SKOV-3 and AGS.

Converted amounts (≈) assume the structure as drawn.

T1 sequence (Q15109 23-342 limits assumed): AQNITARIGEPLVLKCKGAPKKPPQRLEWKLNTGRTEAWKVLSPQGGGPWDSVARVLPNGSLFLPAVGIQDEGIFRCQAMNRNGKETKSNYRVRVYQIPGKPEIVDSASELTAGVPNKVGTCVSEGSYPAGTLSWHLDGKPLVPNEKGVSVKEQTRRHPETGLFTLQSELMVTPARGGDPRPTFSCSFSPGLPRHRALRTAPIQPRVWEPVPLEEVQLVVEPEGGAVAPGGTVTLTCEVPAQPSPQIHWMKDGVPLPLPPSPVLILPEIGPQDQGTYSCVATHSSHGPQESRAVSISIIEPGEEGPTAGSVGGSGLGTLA

The pKa is the negative logarithm of the acid dissociation constant. In the case of `c1ccc2[nH]nnc2c1` [1H-benzotriazole], the pKa in data set [1] was 8.2.

Usually IC50 stands for the point on the concentration scale where inhibition reaches its midpoint. A low value points to greater potency. What is called MBC is the smallest concentration meeting the test's criterion for killing. High values mean weaker bactericidal potency, low ones greater bactericidal potency. The term MIC denotes the least concentration at which growth counts as inhibited. Usually MFC stands for the smallest concentration meeting the test's criterion for killing the fungus. As a reminder, the inhibition is the relative decrease from the control value, in per cent. Read a high inhibition as a response far below the control. In the case of `Brc1ccc(/C=C(/C2=NCCN2)n2ccc3ccccc32)cc1` [Compound 2f, (Z)-1-[2-(4-bromophenyl)-1-(4,5-dihydro-1H-imidazol-2-yl)vinyl]-1H-indole], the IC50 in the data set on AGS was 11.1 ± 1.24 µg/mL (≈ 30.4 µM); with HeLa it was 2.37 ± 0.15 µg/mL (≈ 6.47 µM); in the data set with SKOV-3, 2.76 ± 0.18 µg/mL (≈ 7.54 µM); in the data set on HaCaT, 3.13 ± 0.09 µg/mL (≈ 8.55 µM); in data set [3] (range over HeLa and SKOV-3 cell lines), 2.37 to 2.76 µg/mL (≈ 6.47 to 7.54 µM); in [3] (setting [5]), 2.37 to 11.1 µg/mL (≈ 6.47 to 30.4 µM). The results for the MBC against S. aureus ATCC 6535, against S. aureus MRSA 12673 and against E. coli ATCC 8739 were 55 µg/mL (≈ 150 µM), 110 µg/mL (≈ 300 µM) and 110 µg/mL (≈ 300 µM), respectively. Further, the MIC is 27.5 µg/mL (≈ 75.1 µM) with S. aureus ATCC 6535; 55 µg/mL (≈ 150 µM) with S. aureus MRSA 12673; 110 µg/mL (≈ 300 µM) with E. coli ATCC 8739; 110 µg/mL (≈ 300 µM) with C. albicans ATCC 10231; 220 µg/mL (≈ 601 µM) with C. glabrata ATCC 2001. Further, the MFC with C. albicans ATCC 10231 was 110 µg/mL (≈ 300 µM); against C. glabrata ATCC 2001, 220 µg/mL (≈ 601 µM). In [2], this molecule yielded an inhibition at 100 µM of 46.6%.

Turning to `C(=C(\C1=NCCN1)n1ccc2ccccc21)/c1cccc2ccccc12` [Compound 2h, (Z)-1-[1-(4,5-dihydro-1H-imidazol-2-yl)-2-(naphthalen-1-yl)vinyl]-1H-indole], the IC50 with AGS is 18.9 ± 1.81 µg/mL (≈ 56 µM); with HeLa, 10.1 ± 1.12 µg/mL (≈ 29.9 µM); in the data set with SKOV-3, 10.39 ± 0.1 µg/mL (≈ 30.8 µM); with HaCaT it was 17.9 ± 1.93 µg/mL (≈ 53.2 µM); in data set [3] (setting [5]) it was 10.1 to 18.9 µg/mL (≈ 29.9 to 56 µM). The MBC in the data set with S. aureus ATCC 6535 was 240 µg/mL (≈ 711 µM); with S. aureus MRSA 12673, 240 µg/mL (≈ 711 µM); against E. coli ATCC 8739, more than 240 µg/mL. For the same molecule, the MIC with S. aureus ATCC 6535 is 120 µg/mL (≈ 356 µM); in the data set on S. aureus MRSA 12673, 120 µg/mL (≈ 356 µM); in the data set on E. coli ATCC 8739, more than 240 µg/mL; in the data set with C. albicans ATCC 10231, more than 240 µg/mL; in the data set with C. glabrata ATCC 2001, 240 µg/mL (≈ 711 µM). Besides, the minimal fungicidal concentration (MFC) was more than 240 µg/mL with C. albicans ATCC 10231 and 240 µg/mL (≈ 711 µM) against C. glabrata ATCC 2001. In data set [2], 100 µM produced 36.4% inhibition. Also, the “Inhibition (%) of AGE2-BSA/sRAGE interaction” value in data set [2] (100 µM) amounted to 36.3%. The molecule further displayed an MBC/MFC in data set [4] not below 240 µg/mL.

Source of the values: publication PMC12562379, “Facile Synthesis of N-vinylindoles via Knoevenagel Condensation: Molecular Features and Biological Activities” (International Journal of Molecular Sciences, 2025).
